Laboratory results taken from patent publication US10273278B2, “Epitope recognized by anti-interferon gamma autoantibodies in patients with disseminated mycobacterial infections and the application therefor” (priority 2015, dated 2019).

Tests used:
anti-IFNr AutoAbs [1] = test: Epitope mapping ELISA of synthetic peptides with blood plasma; type: binding, human; details: for recognition of synthetic peptide by blood plasma: plasma from anti-IFNr AutoAbs patients (group-1), 1:100, OD 405 nm
Protocol: Clear polystyrene 96-well flat bottom plates (Nunc) were coated with 100 μL of peptide solution (5 μg/mL) with b-carbonate buffer (pH 9.6) at 4° C. overnight. After blocking the remaining binding sites with 5% human normal serum albumin (Aventis) in PBS, the plates were incubated at 37° C. for 1 hour. Afterward, the plates were washed 3 times with 0.5% Tween 20 in PBS.
Blood plasma samples were added at a 1:100 dilution, in PBS containing 5% human normal serum albumin. Following incubation at room temperature for 2 hours and being washed 3 times, goat anti-human IgG Fcr fragment specific conjugated with alkaline phosphate (Jackson ImmunoResearch Laboratories), was added at a 1:5000 dilution, and the plates were kept for 1 hour at room temperature. Finally, after being washed 5 times, 100 μL of p-Nitrophenyl Phosphate (pNPP) was added and the reaction was read at 405 nm by a VICTOR X3 Multilabel Plate Reader (PerkinElmer) after 30 minutes of incubation at 37° C.

anti-IFNr AutoAbs [2] = test: Competition ELISA against coated peptide 6; type: binding, human; details: patient plasma pre-incubated with 5-30 μg/mL competitor peptide
Protocol: To evaluate the specificity of the reaction, a competition ELISA experiment was performed. Each plasma sample (1:100 dilutions) was pre-incubated with different concentrations (5-30 μg/mL) of the competition peptides overnight at 4° C. Subsequently, all plasma and different concentrations competition peptides mixture samples were examined following the epitope mapping protocol. Peptide 6 was coated with b-carbonate buffer (pH 9.6) at 4° C. overnight. After blocking at 37° C. for 1 hour, all pre-incubated plasma and different concentrations competition peptides mixture samples were added in duplicate. Following 2 hours of room temperature incubation, goat anti-human IgG Fcr fragment specific conjugated with alkaline phosphate, was added. Finally, 100 μL of pNPP was added and the reaction was read at 405 nm by a VICTOR X3 Multilabel Plate Reader (PerkinElmer) after 30 minutes of incubation at 37° C.

p-STAT1 in PBMCs = test: p-STAT1 intracellular stain in PBMCs (CD14+ gated); type: cell-based, human; details: for p-STAT1 signaling restored / up-regulated: IFNr AutoAbs patients' PBMCs pre-incubated with 10% autologous blood plasma; for phosphorylation of STAT1: controls' PBMCs pre-incubated with 20% blood plasma with anti-IFNr AutoAbs from patients; for p-STAT1 signaling: controls' PBMCs, 20% control blood plasma
Protocol: A total of 10^6 PBMCs in 200 μL RPMI-1640 with 10% FBS and 1% penicillin/streptomycin was used. […] After 30 minutes of stimulation in a 37° C. incubator, monocytes were identified by FITC-CD14 (BD Pharmingen) surface staining. Fixed by adding 250 μL of FASC lysing solution (BD Pharmingen) and incubated at room temperature for 15 minutes in the dark, followed by two washes with PBS. To permeabilize the cells, 500 μl of ice-cold absolute methanol was added to each tube and incubated for 15 minutes on ice in the dark, followed by two washes with PBS. Next, PE-phospho-STAT1 (pY701) antibody (BD Pharmingen) was added, followed by 30 minutes incubation on ice in the dark. Again, cells were washed with 2 mL of PBS before resuspension in the 500 μL of PBS. Data were collected with a FACSVerse flow cytometer (BD Biosciences) and analyzed using FACSuite software (BD Biosciences).
Representative histograms (FIG. 2c(1)-FIG. 2c(2)) and MFI (median fluorescence intensity) (FIG. 2d) are shown.
After being gated on the CD14^+, p-STAT-1 levels were determined by flow cytometry with the p-STAT-1 monoclonal antibody. Representative histograms (FIG. 4a(1)-FIG. 4a(2)) and MFI (median fluorescence intensity) (FIG. 4b) are shown.

IL-12p40 in PBMCs = type: cell-based, human
[3] = tested on: HLA-DR expression in PBMCs; test: HLA-DR expression in PBMCs (CD14+ gated); type: cell-based, human; details: IFNr AutoAbs patients' PBMCs pre-incubated with 10% autologous plasma
Protocol: A total of 10^6 PBMCs in 200 μL RPMI-1640 with 10% FBS and 1% penicillin/streptomycin was used. Cells were then stimulated with 500 IU IFNr, IFNr_1-131 or EE-IFNr⋅ in 160 μL RPMI-1640 pre-incubated with 40 μL of normal blood plasma or patient blood plasma for 10 min at room temperature. After 24 hours of stimulation in a 37° C. incubator, monocytes were identified by FITC-CD14 (BD Pharmingen) surface staining. Next, PE-HLA-DR antibody (BD Pharmingen) was added followed by 30 minutes of incubation on ice in the dark. Cells were again washed with 2 ml of PBS before resuspension in 500 μl of PBS. Data were collected with a FACSVerse flow cytometer (BD Biosciences) and analyzed using FACSuite software (BD Biosciences).
After being gated on the CD14^+, HLA-DR expression levels were determined by flow cytometry with the HLA-DR monoclonal antibody. Representative histograms (FIG. 4d(1)-FIG. 4d(2)) and MFI (median fluorescence intensity) (FIG. 4e) are shown.

p-STAT1 in whole blood = p-STAT1 in whole blood ex vivo; type: cell-based, human; details: for p-STAT1 signaling restored / up-regulated: IFNr AutoAbs patients' whole blood; for p-STAT1 signal: controls' whole blood
Text: Representative histograms (FIG. 4f(1)-FIG. 4f(2)) and MFI (median fluorescence intensity) (FIG. 4g) are shown.

WKY/NcrlNarl rats = test: Immunization of rats with Noc2 or IFNr peptide conjugated with OVA; type: in vivo, rat; details: 0.25 mg peptide-OVA, booster every two weeks
Protocol: The inventor immunized WKY/NcrlNarl rats with 0.25 mg Noc2 or IFNr[…] peptide (Noc2: […] (SEQ NO: 31); IFNr: […] (SEQ NO: 32)) conjugated with ovalbumin (OVA) and gave a booster dose every two weeks after the initial injection (day 0). After 70 days, the inventor checked the antibody production level by dot blot or ELISA at each injection. All rats were sacrificed ten days after the tenth injection (day 136) and whole blood was collected. After collection of the whole blood, the blood was allowed to clot by leaving it undisturbed at room temperature 15 minutes. Clots were removed by centrifuging at 1500 g for 10 minutes in a refrigerated centrifuge. Sera were aliquoted and stored at −20° C. for further use.
Blood sera from pre-immunized rats (n=6), Noc2 peptide-immunized rats (n=4) and Peptide 6-immunized rats (n=2) were mapped to control peptide, Peptide 6 and Noc2 peptide from Aspergillus terreus or Aspergillus fumigatus. This is represented as the mean optical density (OD) at 405 nm.

THP1 cells = test: p-STAT1 in THP1 cells pre-incubated with sera of immunized rats and treated with IFNr; type: cell-based; details: 50% sera
anti-IFNr AutoAbs [4] = test: Protein mapping ELISA of recombinant IFNr proteins with blood plasma; type: binding, human; details: for recognition of recombinant IFNr protein by blood plasma (ELISA): plasma from group-1 patients
anti-IFNr AutoAbs [5] = test: Immunoblotting (Western blot / dot blot) with patient or control plasma; type: binding, human; details: for recognition by anti-IFNr AutoAbs in Western blot and dot blot: plasma from anti-IFNr AutoAbs patients; for binding of plasma from healthy controls in Western blot: plasma from healthy donors
Protocol: Recombinant IFNr[…] (R&D Systems) and different truncated forms of recombinant IFNr[…] were subjected to SDS-PAGE using a 10% gel under reducing conditions at 120 V for 2 hours. The proteins were transferred to a PVDF membrane (Invitrogen Life Technologies) at 250 mA for 2 hours. The membrane was blocked in 5% human normal serum albumin (Aventis) in TBS with 0.1% Tween 20 overnight at 4° C. The membrane was incubated with a 1/100 dilution of patient or control blood plasma for 3 hours at room temperature. After being washed three times, the membrane was incubated in a 1/10,000 dilution of mouse anti-human IgG conjugated with horseradish peroxidase (Jackson ImmunoResearch Laboratories) for 1 hour at room temperature. After being washed three times, the membrane was developed with ECL (Merck Millipore).
Plasma from 3 healthy donors had no response to either IFNr1-131 or EE-IFNr.

anti-IFNr AutoAbs [6] = test: Detection and titration of IFNr neutralizing autoantibodies (patient plasma, IFNr ELISA); type: binding, human; details: 200 pg/mL IFNr incubated with serially diluted patient plasma
Protocol: Blood plasma from patients and donors was serially diluted (10^−1 to 10^−6) and incubated with recombinant human IFNr at a final concentration of 200 pg/mL for 1 hour at 37° C. The IFNr level was measured with a human IFNr ELISA kit from BD Biosciences according to the manufacturer's recommendations. All experiments were performed in duplicate.

peptide 6: 30-mer synthetic peptide of human IFNr, P114-143 (IQVMAELSPAAKTGKRKRSQMLFRGRRASQ; UniProt P01579 137-166, looked up, fragment)
recognition of synthetic peptide by blood plasma (anti-IFNr AutoAbs [1]): recognized in the blood plasma isolated from the 12 patients in group-1
recognition of synthetic peptide by non-neutralizing AutoAbs (anti-IFNr AutoAbs [1]; plasma from healthy donors with non-neutralizing IFNr AutoAbs): did not recognize
competition for AutoAbs binding to coated peptide 6 (anti-IFNr AutoAbs [2]): competition for the binding with coated peptide 6 in a dose dependent manner

recombinant IFNr: Recombinant human IFNr (R&D Systems), commercial wild type [reference compound]
p-STAT1 signaling restored / up-regulated (p-STAT1 in PBMCs): up-regulated p-STAT1 signaling cannot be observed
phosphorylation of STAT1 (p-STAT1 in PBMCs): not
p-STAT1 signaling (p-STAT1 in PBMCs): Up-regulation of the p-STAT1 signaling was observed
IL-12p40 expression (IL-12p40 in PBMCs): elevation of IL-12p40 expression couldn't be observed
HLA-DR expression levels restored / up-regulated [3]: up-regulated HLA-DR expression levels were not observed
p-STAT1 signaling restored / up-regulated (p-STAT1 in whole blood): up-regulated p-STAT1 signaling was not found
p-STAT1 signal (p-STAT1 in whole blood): up-regulated

CTPKTGKRKRSEQ
antibodies developed after immunization (WKY/NcrlNarl rats): developed anti-Noc2 antibodies that cross-reacted with human IFNr
p-STAT1 signaling after recombinant IFNr in presence of sera of immunized rats (THP1 cells): decreased up-regulation of p-STAT1 signaling

KKDVTPKTGKRKRSEQQKDE (KKDVPPKTGKRKRSEQQKDE; listed as Aspergillus terreus) [Aspergillus Noc2 peptide]
recognition of synthetic peptide by blood plasma (anti-IFNr AutoAbs [1]): recognized by blood plasma isolated from patients with anti-IFNr AutoAbs
binding of synthetic peptide by blood plasma (anti-IFNr AutoAbs [1]; plasma from mycobacteria infected patients without AutoAbs / healthy controls): did not react
competition for AutoAbs binding to coated peptide 6 (anti-IFNr AutoAbs [2]): compete for IFNr AutoAbs binding with peptide 6 in a dose dependent manner

IFNr_1-144: full-length recombinant IFNr expressed in Schneider 2 cells [reference compound]
recognition of recombinant IFNr protein by blood plasma (ELISA) (anti-IFNr AutoAbs [4]): recognized by blood plasma isolated from the group-1 patients
recognition by anti-IFNr AutoAbs in Western blot and dot blot (anti-IFNr AutoAbs [5]): recognized by anti-IFNr AutoAbs

B1: mIFNr: murine IFNr (protein, UniProt P01580 23-155, looked up)
Interferon gamma: HGTVIESLESLNNYFNSSGIDVEEKSLFLDIWRNWQKDGDMKILQSQIISFYLRLFEVLKDNQAISNNISVIESHLITTFFSNSKAKKDAFMSIAKFEVNNPQVQRQAFNELIRVVHQLLPESSLRKRKRSRC
blocking of IFNr detection by plasma from patients with AutoAbs (plasma dilution) (anti-IFNr AutoAbs [6]): no blocking activity
blocking of IFNr detection by plasma from patients with AutoAbs (plasma dilution) (anti-IFNr AutoAbs [6]; listed as murine IFNr): did not show blocking activity

B2: IFNr_1-131: truncated recombinant human IFNr, deletion clone a.a. 1-131, expressed in Schneider 2 cells (protein)
chain: QDPYVKEAENLKKYFNAGHSDVADNGTLFLGILKNWKEESDRKIMQSQIVSFYFKLFKNFKDDQSIQKSVETIKEDMNVKFFNSNKKKRDDFEKLTNYSVTDLNVQRKAIHELIQVMAELSPAAKTGKRKR
modifications: left off: small tags and cut ends
notes: truncated recombinant human IFNr, deletion clone a.a; 1-131, expressed in Schneider 2 cells
affinity of anti-IFNr AutoAbs by ELISA (anti-IFNr AutoAbs [4]; patients' blood plasma, OD 405 nm): bound to IFNr_1-131 in a dose dependent manner
recognition of recombinant IFNr protein by blood plasma (ELISA) (anti-IFNr AutoAbs [4]): recognized by blood plasma isolated from the group-1 patients
recognition by anti-IFNr AutoAbs in Western blot and dot blot (anti-IFNr AutoAbs [5]): recognized by anti-IFNr AutoAbs
binding of plasma from healthy controls in Western blot (anti-IFNr AutoAbs [5]): no response
binding of plasma from healthy controls in Western blot (anti-IFNr AutoAbs [5]; listed as WT IFNr_1-131): could not bind
p-STAT1 signaling restored / up-regulated (p-STAT1 in PBMCs): up-regulated p-STAT1 signaling cannot be observed
phosphorylation of STAT1 (p-STAT1 in PBMCs): not
p-STAT1 signaling (p-STAT1 in PBMCs): Up-regulation of the p-STAT1 signaling was observed
IL-12p40 expression (IL-12p40 in PBMCs): elevation of IL-12p40 expression couldn't be observed
HLA-DR expression levels restored / up-regulated [3]: up-regulated HLA-DR expression levels were not observed
p-STAT1 signaling restored / up-regulated (p-STAT1 in whole blood): up-regulated p-STAT1 signaling was not found
p-STAT1 signal (p-STAT1 in whole blood): up-regulated
